The text below walks through data of patent US5196427A, “3-aryl-4(3H) quinazolinone CCK antagonists and pharmaceutical formulations thereof” (Eli Lilly and Company, priority 1991, dated 1993).

Structures are written as SMILES. Where two headings read alike, the source gives them in different places.

Test [1] addresses T1, peripheral type CCK receptors in rat pancreas (Rattus norvegicus, UniProt P30551).
T1 construct: from tissue; host or cells: pancreas membranes of male Sprague-Dawley rats
T1 sequence (P30551 1-444): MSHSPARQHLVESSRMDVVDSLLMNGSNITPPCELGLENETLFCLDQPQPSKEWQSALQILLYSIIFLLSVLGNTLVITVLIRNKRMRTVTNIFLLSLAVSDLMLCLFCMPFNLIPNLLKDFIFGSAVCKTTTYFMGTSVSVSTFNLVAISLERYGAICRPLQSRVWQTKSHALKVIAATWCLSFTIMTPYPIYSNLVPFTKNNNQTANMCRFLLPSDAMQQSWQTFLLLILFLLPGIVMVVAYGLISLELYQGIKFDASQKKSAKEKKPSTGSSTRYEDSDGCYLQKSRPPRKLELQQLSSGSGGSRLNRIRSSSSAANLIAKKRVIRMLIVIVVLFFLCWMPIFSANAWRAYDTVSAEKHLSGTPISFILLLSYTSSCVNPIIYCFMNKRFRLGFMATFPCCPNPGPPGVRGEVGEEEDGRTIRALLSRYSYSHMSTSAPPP
Briefly: Binding to peripheral type CCK receptors in rat pancreas (3H-L364,718). Conditions: read-out: Pancreas % inhibition in binding assay. The protocol:
Binding to peripheral type CCK receptors in rat pancreas was done according to the method of Chang et al. (Mol. Pharmacol. 30: 212-217, 1986) using ^3 H-L364, 718. Pancreas was obtained from male & Sprague-Dawley rats, 150-200 g, after decapitation, and dissected free from adipose and connective tissue. The tissue was homogenized in 30 volumes of 50 mM Tris buffer, pH 7.4 and centrifuged at 40,000 g for 10 min. The tissue pellet was washed by resuspension and centrifugation as described above. The final pellet was suspended in 500 volumes of assay buffer (50 mM Tris buffer, pH 7.4, 5 mM MgC2, 0.14 mg/ml bacitracin, and 5 mM dithiothreitol) to give a protein concentration of 30-60 μg/200 μl. Reagent volumes for the assay were the same as those used for CCK binding to brain membranes. […] The samples were incubated 1 hour at room temperature and then filtered as described for the CCK-brain receptor. Scintillation cocktail was added to the filters which were counted for radioactivity using a Micromedic Taurus automatic liquid scintillation counter.
Compound samples were prepared and IC-50 values were determined as described for the CCK-brain experiments. Non-specific binding was that amount left bound to the filters after adding 100 nM L-364,718.

In the next test the target is T2, Brain CCK receptor (Mus musculus, UniProt P56481).
T2 construct: from tissue; host or cells: forebrain membranes of male CF-1 mice
T2 sequence (P56481 1-453): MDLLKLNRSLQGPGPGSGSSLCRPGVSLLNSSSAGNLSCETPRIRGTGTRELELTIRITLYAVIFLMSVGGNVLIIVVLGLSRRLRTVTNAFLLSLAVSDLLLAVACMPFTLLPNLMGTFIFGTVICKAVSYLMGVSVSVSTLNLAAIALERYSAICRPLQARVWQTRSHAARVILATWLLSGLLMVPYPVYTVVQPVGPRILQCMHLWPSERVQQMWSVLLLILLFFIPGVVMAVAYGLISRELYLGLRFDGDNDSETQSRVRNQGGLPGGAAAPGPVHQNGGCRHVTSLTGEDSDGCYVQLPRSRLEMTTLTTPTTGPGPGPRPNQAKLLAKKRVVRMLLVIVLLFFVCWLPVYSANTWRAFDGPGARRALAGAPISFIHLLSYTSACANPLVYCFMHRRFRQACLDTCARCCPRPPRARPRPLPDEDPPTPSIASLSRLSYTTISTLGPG
Briefly: Brain CCK receptor binding (mouse brain membranes, 125I-CCK-8 sulfate). Conditions: for IC50: mouse brain membranes, Mean ± SEM, n = 3, values without SEM n = 1, read-out: Brain IC50. Here is the method: Brain CCK receptor binding was performed using mouse brain membranes according to the method of Chang and Lotti (Proc. Natl. Acad. Sci. 83: 4923-4926, 1986). Male CF-1 mice, 23-25 g were sacrificed by cervical dislocation, the forebrain removed and placed in ice cold 50 mM Tris buffer, pH 7.4. The tissue was homogenized in 100 volumes of the Tris buffer with a Brinkman Polytron or Tekmar Tissumizer and then centrifuged at 40,000 g for 10 min. Pellets were resuspended in Tris buffer, centrifuged as above and then resuspended in 100 volumes of assay buffer, pH 6.5 (20 mM N-2-hydroxyethyl-piperazine-N'-2-ethane sulfonic acid (HEPES), 1 mM ethylene glycol bis(2-aminoethyl ether-N,N,N',N'-tetraaceticacid) (EGTA), 5 mM MgCl2, 130 mM NaCl, and 0.25 mg/ml bacitracin). The binding assay consisted of 50 μL of compound (or buffer for total binding), 50 μL of ^125 I-CCK-8 sulfate (20 pM) (Amersham IM-159), 200 μL of assay buffer and 200 μL of homogenate (80-120 μg protein). The samples were incubated at room temperature (25°) for 2 hours, and they were then filtered through GF/B glass fiber filters (soaked in wash buffer for 2 hours before use) using a 48 well Brandel cell harvester designed for receptor binding. The filters were washed twice with 3 ml of 50 mM Tris buffer, pH 7.4, containing 0.01% BSA and then counted for radioactivity in plastic tubes with a Micromedic 10/600 automatic gamma counter.
Compounds were dissolved in dimethyl sulfoxide (DMSO) at a concentration of 10 mM and then further diluted with assay buffer. […] IC-50 values of displacement curves were determined using 7 concentrations of compound and were calculated using the ALLFIT computer program of DeLean, Munson and Rodbard (Am. J. Physiol. 235: E97-E102, 1978). Non-specific binding was determined as the displacement of the radioligand by 100 nM CCK-8 sulfate.

Another test concerns the target T3, Gastrin receptor (Cavia porcellus, UniProt H0VZC5).
T3 construct: from tissue; host or cells: stomach fundus mucosal membranes of male Hartley guinea pigs
T3 sequence (H0VZC5 1-426): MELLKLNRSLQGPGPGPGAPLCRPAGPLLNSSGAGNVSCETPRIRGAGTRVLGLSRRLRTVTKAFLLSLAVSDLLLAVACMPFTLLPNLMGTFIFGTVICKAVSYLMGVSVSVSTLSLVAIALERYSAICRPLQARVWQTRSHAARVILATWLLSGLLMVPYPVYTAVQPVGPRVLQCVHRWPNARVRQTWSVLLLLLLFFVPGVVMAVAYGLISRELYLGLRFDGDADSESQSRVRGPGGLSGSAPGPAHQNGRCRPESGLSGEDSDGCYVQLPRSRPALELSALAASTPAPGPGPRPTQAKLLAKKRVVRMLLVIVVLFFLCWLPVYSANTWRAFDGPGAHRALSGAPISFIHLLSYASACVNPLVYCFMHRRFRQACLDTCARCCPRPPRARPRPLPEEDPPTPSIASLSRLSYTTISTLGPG
The test can be described thus: Gastrin binding to guinea pig stomach mucosal membranes (125I-gastrin I). Conditions: Mean ± SEM, n = 3. Here is the method:
The method used for gastrin binding to guinea pig stomach mucosal membranes was similar to that described by Takeuchi, Speir and Johnson (Am. J. Physiol. 237(3): E284-E294, 1979). Guinea pig stomach […] was obtained from male Hartley guinea pigs, 300-350 g, and the mucosa was scraped off with a glass The mucosa was homogenized in 50 mM Tris buffer, pH 7.4, containing 1 mM phenylmethanesulfonyl fluoride using a Dounce glass homogenizer, and the suspension was centrifuged at 40,000 g for 10 min. The resulting pellet was resuspended and centrifuged once more, the final pellet was then suspended in 100 ml assay buffer per 1 guinea pig stomach to give a protein concentration of 200-300 μg/200 μl. The assay buffer consisted of 50 mM Tris buffer, pH 7.4, 5 mM MgC2, 0.14 mg/ml bacitracin, and 1 μg/ml each of leupeptin, chymostatin, aprotinin and pepstatin. Reagent volumes for the assay were the same as those used for CCK binding to brain membranes. The radioactive ligand was 20 pM ^125 I-gastrin I, from DuPont NEN (NEX-176). The samples were incubated 3 hours at room temperature and filtered and counted as described for CCK binding to brain membranes. Compound samples were prepared and IC-50 values were determined as described for the CCK-brain receptor binding. Non-specific binding was determined using 100 nM gastrin I (human synthetic from Sigma Chemical Co.).

As to `CC(C)Oc1cccc(-n2c(CCc3c[nH]c4ccc(Br)cc34)nc3ccccc3c2=O)c1` [Example 4, 2-[2-(5-Bromoindol-3-yl)ethyl]-3-(3-isopropoxyphenyl)-4-quinazolinone], in test [1] (rat pancreas, 10 μM), the inhibition at 10 µM is -1.4%. Consider `O=c1c2ccccc2nc(CCc2c[nH]c3ccccc23)n1-c1ccccc1` [Example 1, 2-[2-(3-indolyl)ethyl]-3-phenyl-4-(3H)quinazolinone], for which the inhibition at 10 µM in test [1] was 37%. Also, the IC50 on Brain CCK receptor stood at 0.67 ± 0.15 µM. In the case of `O=c1c2ccccc2nc(CCc2c[nH]c3ccc(Cl)cc23)n1-c1cccc(Br)c1` [Example 16], the inhibition at 10 µM in test [1] (rat pancreas, 10 μM) was 2%. At Brain CCK receptor, the IC50 was 0.19 µM. On to `O=c1c2ccccc2nc(CCc2c[nH]c3ccccc23)n1-c1cccc(Br)c1` [Example 15], for which the inhibition at 10 µM in test [1] (rat pancreas, 10 μM) is -5.7%. Also, on Brain CCK receptor, the IC50 was 0.37 ± 0.03 µM. Consider `Cc1cccc(-n2c(CCc3c[nH]c4ccccc34)nc3ccccc3c2=O)c1` [Example 14], for which the inhibition at 10 µM in test [1] was 0.6%. The IC50 on Brain CCK receptor came out at 0.15 ± 0.01 µM. For `O=c1c2ccccc2nc(CCc2c[nH]c3ccccc23)n1-c1cccc(F)c1` [Example 12], the inhibition at 10 µM in test [1] is 11%. The half-inhibitory concentration (IC50) at Brain CCK receptor came out at 0.73 ± 0.17 µM. Turning to `CCc1cccc(-n2c(CCc3c[nH]c4ccc(Cl)cc34)nc3ccccc3c2=O)c1` [Example 30], the inhibition at 10 µM in test [1] (rat pancreas, 10 μM) was -9.1%. The IC50 at Brain CCK receptor amounted to 0.03 µM.

Turning to `COc1cccc(-n2c(CCc3c[nH]c4ccc(Br)cc34)nc3ccccc3c2=O)c1` [Example 20], the inhibition at 10 µM in test [1] (rat pancreas, 10 μM) came to 5.3%. Consider `CCc1cccc(-n2c(CCc3c[nH]c4ccc(Br)cc34)nc3ccccc3c2=O)c1` [Example 29], for which the inhibition at 10 µM in test [1] (rat pancreas, 10 μM) is -4.5%. The IC50 came to 1.1 ± 0.2 µM at Gastrin receptor and 0.046 ± 0.01 µM at Brain CCK receptor. As for `CCOc1cccc(-n2c(CCc3c[nH]c4ccc(Br)cc34)nc3ccccc3c2=O)c1` [Example 23], in test [1] (rat pancreas, 10 μM), the inhibition at 10 µM is -14%. In addition, the IC50 at Brain CCK receptor was determined as 0.034 ± 0.007 µM. On to `CCc1cccc(-n2c(CCc3c[nH]c4ccccc34)nc3ccccc3c2=O)c1` [Example 28], for which, in test [1], the inhibition at 10 µM worked out at 2.6%. Besides, the IC50 on Brain CCK receptor amounted to 0.072 ± 0.001 µM. Taken in the same sequence, the figures for `O=c1c2ccccc2nc(CCc2c[nH]c3ccccc23)n1-c1cccc(Cl)c1` [Example 13] were 17% and 0.69 ± 0.16 µM. Take `COc1cccc(-n2c(CCc3c[nH]c4ccccc34)nc3ccccc3c2=O)c1` [Example 17]: the inhibition at 10 µM in test [1] turned out to be 16%. For the same compound, the IC50 on Brain CCK receptor was 0.16 ± 0.03 µM. Regarding `O=c1c2ccccc2nc(CCCc2c[nH]c3ccccc23)n1-c1ccccc1` [Example 62], the inhibition at 10 µM in test [1] (rat pancreas, 10 μM) was determined as 11%; on Brain CCK receptor (read-out: Brain % inhibition in binding assay, mouse brain membranes, 10 μM) it was 20%. `CCc1cccc(-n2c(CCc3c[nH]c4ccc(OC)cc34)nc3ccccc3c2=O)c1` [Example 31]: the inhibition at 10 µM in test [1] (rat pancreas, 10 μM) stood at 11%. Besides, the concentration for half-maximal inhibition (IC50) at Brain CCK receptor was found to be 0.022 µM. With `CCc1cccc(-n2c(CC(C)c3c[nH]c4ccc(Br)cc34)nc3ccccc3c2=O)c1` (stereo not drawn) [Example 64], the results for the IC50 at Gastrin receptor and on Brain CCK receptor were 1.6 ± 0.1 µM and 0.1 ± 0.01 µM, respectively. As to `COc1ccc(-n2c(CCc3c[nH]c4ccc(Br)cc34)nc3ccccc3c2=O)cc1` [Example 52], the inhibition at 10 µM in test [1] (rat pancreas, 10 μM) is 0.3%. Further, the IC50 at Brain CCK receptor is 0.031 ± 0.006 µM.

As usually defined, the inhibition is the relative decrease from the control value, in per cent. Broadly, the IC50 is the concentration that inhibits the measured activity by half.
